Source: publication PMC9077138, “An investigation on 3-acetyl-7-methoxy-coumarin Schiff bases and their Ru(II) metallates with potent antiproliferative activity and enhanced LDH and NO release” (RSC Advances, 2018)

How the values were obtained:
S. aureus = test: In vitro antibacterial assay (zone of inhibition, MIC); type: cell-based, Staphylococcus aureus; conditions: for Minimum inhibitory concentration (MIC); head: IC50 VALUES / Zone of inhibition: S. aureus; for zone of inhibition at 50 µg/mL / zone of inhibition at 100 µg/mL: Staphylococcus aureus
Procedure: (§1) The free ligands and their cyclometallated ruthenium(II) carbonyl complexes were screened for their in vitro antimicrobial activity against certain pathogenic bacterial and fungal species at three different concentrations using disc diffusion method.
(§2) Antimicrobial activities of [RuHClCO(PPh3)3], ligands H2L^1–4 and new organometallic Ru(II) complexes (1–4) were evaluated by agar well diffusion method[76] as reported, by taking Staphylococcus aureus, Streptococcus pneumonie, Pseudomonas aeruginosa, Salmonella paratyphi and fungus such as Candida albicans, Trichophyton rubrum, Aspergillus niger, Aspergillus fumigatus and Candida tropicalis. The above said all test organisms were obtained from the MTCC, Chandigarh, India and Microbiological laboratory, Coimbatore, Tamil Nadu, India. The antimicrobial activity of the test compounds was checked with various concentrations (25 μg ml^−1, 50 μg ml^−1 and 100 μg ml^−1) against all the test pathogens. Gentamicin and ketoconazole were used as positive controls to study the antibacterial and antifungal activities respectively. Each experiment was performed in triplicate and the results are represented as average zone of inhibition and minimum inhibitory concentration of all the test pathogens.

BSA = target: T1, BSA (Bos taurus, UniProt P02769); test: BSA tryptophan fluorescence quenching; type: binding, bovine; conditions: for Quenching constant kq / Stern–Volmer KSV / number of binding sites n / Binding constant Kbin: BSA; for Binding constant Kbin: Scatchard equation; for quenching of BSA fluorescence intensity at 346 nm: compounds 10–100 μM, BSA 10 μM
T1 construct: purchased HiMedia (Mumbai, India)
T1 sequence (P02769 25-607): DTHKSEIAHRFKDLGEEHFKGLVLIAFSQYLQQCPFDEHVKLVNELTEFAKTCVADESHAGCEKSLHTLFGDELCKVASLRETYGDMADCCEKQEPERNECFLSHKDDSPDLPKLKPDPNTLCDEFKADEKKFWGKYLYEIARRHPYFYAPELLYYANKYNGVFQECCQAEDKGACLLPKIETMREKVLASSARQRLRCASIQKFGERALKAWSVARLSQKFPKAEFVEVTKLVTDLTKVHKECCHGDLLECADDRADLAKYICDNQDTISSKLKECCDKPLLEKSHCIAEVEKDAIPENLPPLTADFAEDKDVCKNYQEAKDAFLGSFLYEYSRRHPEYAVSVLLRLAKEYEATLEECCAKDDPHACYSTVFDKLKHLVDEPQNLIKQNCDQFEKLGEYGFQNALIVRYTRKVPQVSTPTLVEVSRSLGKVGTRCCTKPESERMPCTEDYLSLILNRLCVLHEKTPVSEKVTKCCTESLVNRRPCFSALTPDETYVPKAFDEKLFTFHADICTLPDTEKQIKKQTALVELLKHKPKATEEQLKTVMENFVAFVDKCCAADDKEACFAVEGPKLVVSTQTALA
Source text: The obtained results confirmed the interaction of the ligands and complexes with serum albumins. The absorption spectra of the serum albumins in the absence and presence of ligands H2L^1–4 and the complexes 1–4 are given in Fig. S29 in the ESI. ^† On adding ligands and complexes 1–4 to albumins, the absorbance intensity of serum albumins was decreased with a red shift of 2 nm. The observed changes indicated a static quenching mechanism of serum albumins by the ligands and complexes (1–4). To obtain a quantitative insight into the quenching progression, the Stern–Volmer quenching constant (KSV) and the quenching constant (Kq) were calculated from the Stern–Volmer equation using the Io/ICorrversus [Q] plot (Table 4).[53] The observed linearity in the plots (Fig. 13) indicated the ability of the compounds to quench the emission intensity of serum albumins and the order of quenching constant of the compounds is complex 3 > complex 2 > complex 1 > complex 4 > H2L^3 > H2L^2 > H2L^1 > H2L^4.
Furthermore, the equilibrium binding constant and number of binding sites were evaluated by using the Scatchard equation. The Kbin values were derived from the graph between log[(Fo − F)/F] and log[Q] From the results, we confirmed that the Ru(II) complexes having a large hydrophobic area can interact more efficiently than the ligands with serum albumins via a static pathway. The higher binding affinity of the complexes over the ligands may be due to the efficient binding of protein moiety with the complexed metal ions. Here, the binding affinities of the complexes with serum albumins followed the same order as those with DNA binding studies, complex 3 > complex 2 > complex 1 > complex 4 > H2L^3 > H2L^2 > H2L^1 > H2L^4. Variation in the binding affinity of the compounds with serum albumins depends on the electron-donating ability of the ligand, i.e. the substitution on the N-terminal nitrogen atom. The binding capability of the compounds to serum albumins increased with the increase in electron-donating ability of the substituent on the terminal nitrogen of the coordinated thiosemicarbazone ligand. The obtained quenching constant and binding constant values of these new cyclometallated ruthenium(II) complexes agree well with those reported for other ruthenium(II) complexes.[31,44,54–56] […]
Serum albumin binding study
Bovine Serum Albumin (BSA) and human serum albumin were purchased from Hi Media, The protein binding study was performed by tryptophan fluorescence quenching experiments using bovine serum albumin (BSA, 10 µM) or human serum albumin (HSA, 10 µM) as the substrate in phosphate buffer (pH= 7.2). Quenching of the emission intensity of tryptophan residues of BSA at 346 nm (excitation wavelength at 280 nm)/ HSA at 345 nm (excitation wavelength at 290 nm) was monitored using ligands and complexes as quenchers with increasing concentration (10-100µM). Synchronous fluorescence spectra of BSA or HSA with various concentrations of the complexes were obtained from 300 to 400 nm when ∆λ = 60 nm and from 290 to 500 nm when ∆λ = 15 nm. For synchronous fluorescence spectra, the same concentrations of serum albumins and the compounds were also used and the spectra were measured at two different Δλ values (difference between the excitation and emission wavelengths of BSA), such as 15 and 60 nm. Fluorescence and synchronous measurements were performed using a 1 cm quartz cell on a JASCO FP 6600 spectrofluorimeter.
The quenching data can be analyzed according to the Stern-Volmer equation, […]
Io/Icorr =K SV[Q]+1 Eq (S2) where Iₒ is the emission intensity in the absence of compound, Icorr is the corrected emission intensity in the presence of compound, KSV is the quenching constant and [Q] is the concentration of the compound.
In order to correct the inner filter effect, the following equation used Icorr = Iobs*10 (Aexc+Aem)/2 where Icorr is the corrected fluorescence value, Iobs the measured fluorescence value, Aexc is […]

S. paratyphi = test: In vitro antibacterial assay (zone of inhibition, MIC); type: cell-based, Salmonella paratyphi; conditions: for zone of inhibition at 50 µg/mL / zone of inhibition at 100 µg/mL: Salmonella enterica
Source text: The free ligands and their cyclometallated ruthenium(II) carbonyl complexes were screened for their in vitro antimicrobial activity against certain pathogenic bacterial and fungal species at three different concentrations using disc diffusion method. […] Tested complexes had better antimicrobial activity than the ligands against all pathogens. This may be explained by Tweedy's chelation theory.[61] Coordination of ligands reduce the polarity of the metal ion essentially by partial sharing of its positive charge with the donor groups within the chelate ring system formed during the coordination and leading to the increase in lipophilic nature of the central metal atom, which favours the effective permeation through the lipid layer of microorganism.[61,62] […] When tested against T. rubrum, the activity of the complexes in the order of 3 > 2 > 1 > 4. In antibacterial studies, the complex 3 was effective against S. aureus followed by complex 2, 1 and 4 and in the case of S. pneumonie the activity of the complexes follows the order of 3 > 1 > 4 > 2. […] When tested against S. paratyphi complex 1 stood out as good followed by the complexes 4, 3 and 2 respectively.
as §2

P. aeruginosa = test: as above; type: cell-based, Pseudomonas aeruginosa; conditions: for Minimum inhibitory concentration (MIC); head: IC50 VALUES / Zone of inhibition: P. aeruginosa; for zone of inhibition at 50 µg/mL / zone of inhibition at 100 µg/mL: Pseudomonas aeruginosa
Procedure: as §1, §2

S. pneumonie = test: as above; type: cell-based, Streptococcus pneumonie; conditions: for Minimum inhibitory concentration (MIC); head: IC50 VALUES / Zone of inhibition: S. pneumonie; for zone of inhibition at 50 µg/mL / zone of inhibition at 100 µg/mL: Streptococcus
Procedure: as §1, §2

Row | SMILES | Minimum inhibitory concentration (MIC); head: IC50 VALUES (S. aureus) [µM] | Zone of inhibition (S. aureus; 50 µg/ml) [mm] | Zone of inhibition (S. aureus; 100 µg/ml) [mm] | Quenching constant kq (BSA) | Stern–Volmer KSV (BSA) | number of binding sites n (BSA) | Binding constant Kbin (BSA) | quenching of BSA fluorescence intensity at 346 nm (BSA) [%] | Zone of inhibition (S. paratyphi; 50 µg/ml) [mm] | Zone of inhibition (S. paratyphi; 100 µg/ml) [mm] | Minimum inhibitory concentration (MIC); head: IC50 VALUES (P. aeruginosa) [µM] | zone of inhibition at 50 µg/mL (S. aureus) [mm] | zone of inhibition at 100 µg/mL (S. aureus) [mm] | Kd (BSA) [µM] | zone of inhibition at 50 µg/mL (S. paratyphi; 50 µg/ml) [mm] | zone of inhibition at 100 µg/mL (S. paratyphi; 100 µg/ml) [mm] | zone of inhibition at 50 µg/mL (P. aeruginosa) [mm] | zone of inhibition at 100 µg/mL (P. aeruginosa) [mm] | zone of inhibition at 50 µg/mL (S. pneumonie) [mm] | zone of inhibition at 100 µg/mL (S. pneumonie) [mm] | further results
1 | COc1ccc2[c]3c(c(=O)oc2c1)C(C)=[N+]1N=C(N)[S][Ru-4]31([C]#[O+])([P+](c1ccccc1)(c1ccccc1)c1ccccc1)[P+](c1ccccc1)(c1ccccc1)c1ccccc1 [Complex 1, [Ru(7MAC-tsc)(CO)(PPh3)2]] | 16.35 ± 0.21 | 12.16±0.11 | 18.09±0.15 | 1.674 ± 0.040 × 10^12 M^−1 s^−1 | 1.674 ± 0.040 × 10^4 M^−1 | 1.0408 ± 0.030 | 2.251 ± 0.029 × 10^4 M^−1 | 62.61 | 12.55±0.04 | 18.95±0.31 | 16.37 ± 0.19 |  |  |  |  |  |  |  |  |  | Zone of inhibition (P. aeruginosa; 50 µg/ml): 13.23±0.32 mm; Zone of inhibition (P. aeruginosa; 100 µg/ml): 16.66±0.44 mm; Minimum inhibitory concentration (MIC); head: IC50 VALUES (S. pneumonie): 15.86 ± 0.07 µM; Zone of inhibition (S. pneumonie; 50 µg/ml): 12.41±0.36 mm; Zone of inhibition (S. pneumonie; 100 µg/ml): 18.51±0.94 mm
2 | CCNC1=N[N+]2=C(C)c3[c](c4ccc(OC)cc4oc3=O)[Ru-4]2([C]#[O+])([P+](c2ccccc2)(c2ccccc2)c2ccccc2)([P+](c2ccccc2)(c2ccccc2)c2ccccc2)[S]1 [Complex 3, [Ru(7MAC-etsc)(CO)(PPh3)2]] | 13.14 ± 0.12 | 12.04±0.60 | 17.14±0.12 | 1.756 ± 0.080 × 10^12 M^−1 s^−1 | 1.756 ± 0.080 × 10^4 M^−1 | 1.266 ± 0.0290 | 17.49 ± 0.030 × 10^4 M^−1 | 63.19 | 12.53±0.14 | 17.44±0.27 | 14.46 ± 0.18 |  |  |  |  |  |  |  |  |  | Zone of inhibition (P. aeruginosa; 50 µg/ml): 13.23±0.52 mm; Zone of inhibition (P. aeruginosa; 100 µg/ml): 17.34±0.45 mm; Minimum inhibitory concentration (MIC); head: IC50 VALUES (S. pneumonie): 14.85 ± 0.09 µM; Zone of inhibition (S. pneumonie; 50 µg/ml): 11.11±0.22 mm; Zone of inhibition (S. pneumonie; 100 µg/ml): 17.46±0.41 mm
3 | COc1ccc2cc(/C(C)=N\NC(=S)Nc3ccccc3)c(=O)oc2c1 [H2L^4, ((1E)-1-(1-(7-methoxy-2-oxo-2H-chromen-3-yl)ethylidene) 4(N)-phenylthiosemicarbazone)] |  |  |  |  |  |  |  |  |  |  |  | 15.4 ± 0.52 | 18.5 ± 0.73 | 900 | 12.2 ± 0.51 | 16.4 ± 0.51 | 12.1 ± 0.32 | 17.5 ± 0.65 | 12.2 ± 0.43 | 18.1 ± 0.22 | 
4 | CNC1=N[N+]2=C(C)c3[c](c4ccc(OC)cc4oc3=O)[Ru-4]2([C]#[O+])([P+](c2ccccc2)(c2ccccc2)c2ccccc2)([P+](c2ccccc2)(c2ccccc2)c2ccccc2)[S]1 [Complex 2, [Ru(7MAC-mtsc)(CO)(PPh3)2]] | 15.90 ± 0.16 | 13.12±0.41 | 18.65±0.13 | 2.382 ± 0.011 × 10^12 M^−1 s^−1 | 2.382 ± 0.011 × 10^4 M^−1 | 1.0478 ± 0.031 | 3.323 ± 0.027 × 10^4 M^−1 | 71.15 | 13.41±0.01 | 18.45±0.51 | 14.81 ± 0.19 |  |  |  |  |  |  |  |  |  | Zone of inhibition (P. aeruginosa; 50 µg/ml): 12.12±0.13 mm; Zone of inhibition (P. aeruginosa; 100 µg/ml): 17.95±0.21 mm; Minimum inhibitory concentration (MIC); head: IC50 VALUES (S. pneumonie): 16.43 ± 0.09 µM; Zone of inhibition (S. pneumonie; 50 µg/ml): 13.21±0.13 mm; Zone of inhibition (S. pneumonie; 100 µg/ml): 17.14±0.12 mm
5 | COc1ccc2cc(C(C)=NNC(N)=S)c(=O)oc2c1 [H2L^1, ((1E)-1-(1-(7-methoxy-2-oxo-2H-chromen-3-yl)ethylidene)thiosemicarbazone)] |  |  |  |  |  |  |  |  |  |  |  | 13 ± 0.23 | 17.19 ± 0.16 | 507 | 13.2 ± 0.77 | 16.5 ± 0.46 | 13.2 ± 0.41 | 18.1 ± 0.24 | 12.38 ± 0.12 | 16.4 ± 0.31 | 
6 | CCNC(=S)NN=C(C)c1cc2ccc(OC)cc2oc1=O [H2L^3, ((1E)-1-(1-(7-methoxy-2-oxo-2H-chromen-3-yl)ethylidene) 4(N)-ethylthiosemicarbazone)] |  |  |  |  |  |  |  |  |  |  |  | 12.3 ± 0.41 | 15.6 ± 0.65 | 70.9 | 12.2 ± 0.25 | 17.1 ± 0.32 | 12.5 ± 0.34 | 16.4 ± 0.23 | 11.2 ± 0.15 | 17.2 ± 0.21 | 
7 | CNC(=S)NN=C(C)c1cc2ccc(OC)cc2oc1=O [H2L^2, ((1E)-1-(1-(7-methoxy-2-oxo-2H-chromen-3-yl)ethylidene) 4(N)-methylthiosemicarbazone)] |  |  |  |  |  |  |  |  |  |  |  | 12.1 ± 0.25 | 17.5 ± 0.28 | 333 | 13.43 ± 0.12 | 16.2 ± 0.57 | 12.6 ± 0.37 | 17.7 ± 0.45 | 12.1 ± 0.33 | 17.3 ± 0.41 | 
